Assay results from patent US9861624B2, “Method of treating cancer” (Exelixis, Inc., priority 2012, dated 2018).

Tests used:
[1] = tested on: murine pancreatic neuroendocrine tumor model; test: Murine pancreatic neuroendocrine tumor model; settings: mouse, in vivo
xenograft tumor models = test: Xenograft tumor models; settings: in vivo
[2] = tested on: CRPC patients with evidence of bone metastases; test: Adaptive phase 2 trial (NCT00940225), case studies of the first three CRPC patients with bone metastases; format: in vivo, human; settings: for PSA / serum tALP levels: Week 18
Description: In 2000, local disease recurrence was treated with radiation therapy. […] CAB with leuprolide and bicalutamide was initiated. […] All patients provided informed consent before study screening.

COc1cc2nccc(Oc3ccc(NC(=O)C4(C(=O)Nc5ccc(F)cc5)CC4)cc3)c2cc1OC [Compound 1, N-(4-{[6,7-bis(methyloxy)quinolin-4-yl]oxy}phenyl)-N′-(4-fluorophenyl)cyclopropane-1,1-dicarboxamide]
overall survival [1]: substantially improves
tumor invasiveness and metastasis [1]: significantly reduces
effect on tumors in xenograft tumor models (xenograft tumor models): tumor regression
increase in hemoglobin ([2]; Patient 1, Week 2 compared with baseline): 1.4 g/dL
radiotracer uptake by bone metastases on bone scan ([2]; Patient 1, Week 6): dramatic decrease
bone lesions ([2]; Patient 1, Week 12): near complete resolution
PSA ([2]; Patient 1, 430 ng/mL at baseline): 93.5 ng/mL
serum tALP levels ([2]; Patient 1, 689 U/L at baseline): 159 U/L
bone pain ([2]; Patient 1, four weeks after start): significant reduction
bone pain ([2]; Patient 2, Week 4): reduction
radiotracer uptake by bone lesions on bone scan ([2]; Patient 2, Week 6): slight flair
radiotracer uptake ([2]; Patient 2, Week 12): substantial reduction
hemoglobin increase ([2]; Patient 2, Week 12 compared with baseline): 1.8 g/dL
PSA peak ([2]; Patient 2, Week 16, after placebo Week 12 to 15, crossed over to Compound 1 at Week 15): ~6 fold of baseline
PSA ([2]; Patient 2, subsequent to crossing over to Compound 1 from placebo): 2 fold of baseline
hemoglobin increase ([2]; Patient 3, Week 2 compared with baseline): 2.2 g/dL
radiotracer uptake on bone scan ([2]; Patient 3, Week 6): dramatic reduction
bone lesions on bone scan ([2]; Patient 3, Week 12): complete resolution
PSA ([2]; Patient 3, 2.4 ng/mL at screening): 1.2 ng/mL
serum tALP levels ([2]; Patient 3, 869 U/L at baseline): 197 U/L
pain ([2]; Patient 3, after three weeks): complete resolution
uptake of radiotracer on bone scan ([2]; all three patients, summary): striking decrease
bone lesions ([2]; three metastatic CRPC patients, summary): near complete resolution
